These results are taken from PubChem BioAssay AID1190 (EPA DSSTox, 2008).

The source made the active and inactive calls. The rule behind the calls is not given here.

For this data set, the system named is dog and primate chronic carcinogenicity bioassays, TD50. Description: DSSTox (CPDBAS) Carcinogenic Potency Database Summary Dog & Primates Bioassay Results. The text has this:
The Carcinogenic Potency Database (CPDB) is a unique and widely used international resource of the results of over 6500 chronic, long-term animal cancer tests on over 1500 chemical substances. The CPDB provides easy access to the bioassay literature, with qualitative and quantitative analyses of both positive and negative experiments that have been published over the past 50 years in the general literature and by the National Cancer Institute/National Toxicology Program. The CPDB standardizes the diverse literature of cancer bioassays that vary widely in protocol, histopathological examination and nomenclature, and in the published author's choices of what information to provide in their papers. Results are reported in the CPDB for tests in rats, mice, hamsters, dogs, and nonhuman primates, and are based on the most positive result among all experiments for each sex-species. The DSSTox CPDBAS (all species) file incorporates data from the CPDB Summary Tables for the full list of over 1500 chemical substances tested in at least one species. Summary bioassay results for Dogs and Non-Human Primates (TD50, tumor sites) are provided in the CPDB Summary Tables and the DSSTox CPDBAS file for more than 30 chemical substances.
TD50 is a standardized quantitative measure of carcinogenic potency (analogous to an LD50) and is reported in the CPDB Summary Table for each species. Comments pertaining to the Dog or Primates (Cynomolgus, Rhesus, Bush Baby, Tree Shrew) TD50 (corresponding to footnote indices in the original CPDB Summary Table) are provided in the TD50_Dog_Primates_Note field. […] Target sites are reported for each species with a positive result in the CPDB on the basis of a positive author's opinion for the particular site and using all results from both the general literature and NCI/NTP bioassays. If a chemical has two or more target sites listed, the results may be from different experiments, and a single site may be a target organ in more than one experiment, as well. Blank entry in TargetSites field indicates no results reported.
On to `Cc1cccc(N=Nc2ccc(N(C)C)cc2)c1`, for which the outcome was “inactive; no positive results”.
In the case of `Nc1ccc(Cc2ccc(N)c(Cl)c2)cc1Cl`, the result was active.
Turning to `COc1cc2c(c3oc(=O)c4c(c13)CCC4=O)C1C=COC1O2` (stereo unspecified), the Potency is 0.0082 mg/kg/day.
For the molecule `ClC(Cl)Cl`, the result was inactive.
As for `Cc1ccc2cc3c(ccc4ccccc43)c3c2c1CC3`, the outcome is “inactive; no positive results”.
Still for that read-out and setting: the value for `CN(C)c1ccc(N=Nc2ccccc2)cc1` was “inactive; no positive results”; that for `COc1cc2c(c3oc4cccc(O)c4c(=O)c13)C1C=COC1O2` (stereo unspecified) was “active”.
On to `Cc1cc(C)c(S(=O)(=O)O)cc1N=Nc1cc(S(=O)(=O)O)c2ccccc2c1O`, for which the outcome was inactive.
With `O=C1NS(=O)(=O)c2ccccc21`, the outcome was “inactive; no positive results”.
As for `C#C[C@]1(OC(C)=O)CC[C@H]2[C@@H]3CCC4=CC(=O)CC[C@@H]4[C@H]3CC[C@@]21C`, the outcome was “inactive; no positive results”.
The same measure, in the same setting: the value for `Nc1ccc(-c2ccc(N)c(Cl)c2)cc1Cl` was “active”; that for `CN(C)N=O` was “inactive; no positive results”.
Take `COc1cccc2c1C(=O)c1c(O)c3c(c(O)c1C2=O)C[C@@](O)(C(=O)CO)C[C@@H]3O[C@H]1C[C@H](N)[C@H](O)[C@H](C)O1`: the outcome is “inactive; no positive results”.
Take `N[C@@H](Cc1ccc(N(CCCl)CCCl)cc1)C(=O)O`: the outcome is “active; no positive results”.
With `Cn1c(N)nc2c3cccnc3ccc21`, the result was active.
In the case of `CN(N=O)C(N)=O`, the Potency is 7.18 mg/kg/day.
As to `CCN(CC)N=O`, the Potency is 0.0536 mg/kg/day.
For the molecule `O=S(=O)(O)NC1CCCCC1`, the outcome was “inactive; no positive results”.
Regarding `C/[N+]([O-])=N/CO[C@@H]1O[C@H](CO)[C@@H](O)[C@H](O)[C@H]1O`, the Potency is 0.0657 mg/kg/day.
Regarding `O=P1(N(CCCl)CCCl)NCCCO1` (stereo unspecified), the outcome is “inactive; no positive results”.
Turning to `C#C[C@@]1(O)CC[C@H]2[C@@H]3CCC4=CCCC[C@@H]4[C@H]3CC[C@@]21C`, the result was active.
Still for that read-out and setting: as for `CC(=O)Nc1ccc2c(c1)Cc1ccccc1-2`, the entry is “inactive; no positive results”.
For `Nc1ccc2ccccc2c1`, the Potency was 5.74 mg/kg/day.
Regarding `Clc1ccc(C(c2ccc(Cl)cc2)C(Cl)(Cl)Cl)cc1`, the outcome was “inactive; no positive results”.
`CCOC(N)=O`: the Potency was 65.2 mg/kg/day.
Turning to `O=NN1CCCCC1`, the Potency was 2.76 mg/kg/day.
On to `CNNCc1ccc(C(=O)NC(C)C)cc1`, for which the Potency was 4.21 mg/kg/day.
On to `CCCN(CCC)N=O`, for which the Potency was 0.0121 mg/kg/day.
Regarding `O=[As](O)(O)O`, the outcome was inactive.
For `CC(=O)Nc1ccc2c(c1)Cc1cc(NC(C)=O)ccc1-2`, the outcome was “inactive; no positive results”.
In the case of `Cn1cnc([N+](=O)[O-])c1Sc1ncnc2nc[nH]c12`, the outcome is “inactive; no positive results”.
